Experimental data as given in ChEMBL document CHEMBL4359887, “Hitting on the move: Targeting intrinsically disordered protein states of the MDM2-p53 interaction” (Eur J Med Chem, 2019).

How the values were obtained:
Protein Mdm4 = molecular target: T1, Protein Mdm4 (Homo sapiens, UniProt O15151)
T1 sequence (O15151 whole entry): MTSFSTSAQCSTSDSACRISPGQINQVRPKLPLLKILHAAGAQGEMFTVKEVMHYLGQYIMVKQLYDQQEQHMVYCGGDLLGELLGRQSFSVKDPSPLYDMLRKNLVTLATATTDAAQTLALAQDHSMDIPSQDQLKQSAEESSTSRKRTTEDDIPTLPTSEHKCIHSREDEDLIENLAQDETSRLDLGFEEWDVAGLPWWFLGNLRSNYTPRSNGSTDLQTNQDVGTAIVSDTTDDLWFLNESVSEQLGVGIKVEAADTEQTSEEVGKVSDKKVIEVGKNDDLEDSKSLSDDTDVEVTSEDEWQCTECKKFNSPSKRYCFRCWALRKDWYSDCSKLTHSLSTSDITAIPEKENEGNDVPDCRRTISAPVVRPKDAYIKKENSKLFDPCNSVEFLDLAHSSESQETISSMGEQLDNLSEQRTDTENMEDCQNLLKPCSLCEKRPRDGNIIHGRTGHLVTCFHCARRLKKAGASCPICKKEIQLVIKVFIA

HCT-116 [1] = experiment: Induction of apoptosis in human HCT116 cells assessed as late apoptotic cells expressing wild type p53 at 20 uM measured after 72 hrs by annexin V-FITC/propidium iodide staining-based flow cytometry analysis (reference value: 6.8 %); type: functional
HCT-116 [2] = experiment: Induction of apoptosis in human HCT116 cells expressing wild type p53 assessed as live cells at 20 uM measured after 72 hrs by annexin V-FITC/propidium iodide staining-based flow cytometry analysis (reference value: 83.7 %); type: functional
HCT-116 [3] = experiment: Induction of apoptosis in human HCT116 cells expressing wild type p53 assessed as early apoptotic cells expressing wild type p53 at 20 uM measured after 72 hrs by annexin V-FITC/propidium iodide staining-based flow cytometry analysis (reference value: 8.8 %); type: functional
HCT-116 [4] = experiment: Induction of apoptosis in human HCT116 cells expressing wild type p53 assessed as necrotic cells at 20 uM measured after 72 hrs by annexin V-FITC/propidium iodide staining-based flow cytometry analysis (reference value: 0.7 %); type: functional
[5] = molecular target: E3 ubiquitin-protein ligase Mdm2 (Homo sapiens, UniProt Q00987)
SAOS-2 = experiment: Anticancer activity against p53-deleted human Saos2 cells assessed as inhibition of cell viability measured after 5 days by MTT assay; conditions: SAOS-2, 120 h
U2OS = experiment: Anticancer activity against human U2OS cells expressing wild-type p53 assessed as inhibition of cell viability measured after 5 days by MTT assay; conditions: 120 h

Chain of E3 ubiquitin-protein ligase Mdm2 (Q00987 whole entry): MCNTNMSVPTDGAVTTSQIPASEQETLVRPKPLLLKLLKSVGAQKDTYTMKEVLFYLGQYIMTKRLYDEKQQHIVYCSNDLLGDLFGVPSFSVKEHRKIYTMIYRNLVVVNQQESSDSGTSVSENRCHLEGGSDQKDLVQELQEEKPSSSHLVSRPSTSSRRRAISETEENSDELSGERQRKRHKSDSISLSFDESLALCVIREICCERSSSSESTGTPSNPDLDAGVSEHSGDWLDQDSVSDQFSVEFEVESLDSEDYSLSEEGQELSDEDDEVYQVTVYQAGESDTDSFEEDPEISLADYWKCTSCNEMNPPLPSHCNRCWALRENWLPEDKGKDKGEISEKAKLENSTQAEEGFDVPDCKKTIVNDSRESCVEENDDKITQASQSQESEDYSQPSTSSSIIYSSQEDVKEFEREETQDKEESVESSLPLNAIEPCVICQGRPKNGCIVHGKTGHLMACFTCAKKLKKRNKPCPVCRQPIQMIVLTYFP

Ki (Protein Mdm4) | Compound | Activity (HCT-116 [1]) | Activity (HCT-116 [2]) | Activity (HCT-116 [3]) | Activity (HCT-116 [4]) | further results
Not Active | CC(C)(C)NC(=O)C(c1c(C(=O)O)[nH]c2cc(Cl)ccc12)N(C=O)Cc1ccc(OCc2ccncc2)cc1 (stereo not given) | – | – | – | – | –
– | CC(C)(C)NC(=O)C(c1c(C(=O)O)[nH]c2cc(Cl)ccc12)N(C=O)Cc1ccc(OCc2ccc(Br)cc2)cc1 (stereo not given) | 11.6% | 77.9% | 9.8% | 0.7% | –
Not Active | CC(C)(C)NC(=O)C(c1cccc(Cl)c1)N(C=O)Cc1ccc(Cl)cc1 (stereo not given) | – | – | – | – | Ki [5]: Not Active
– | CCOC(=O)c1[nH]c2cc(Cl)ccc2c1C(C(=O)NC(C)(C)C)N(C=O)Cc1ccc(OCCc2ccccc2)cc1 (stereo not given) | 40.2% | 12.6% | 46.6% | 0.7% | –
– | CC1(C)[C@H]2CC[C@@]1(C)C(NC(=O)C(c1c(C(=O)O)[nH]c3cc(Cl)ccc13)N(C=O)Cc1ccc(OCc3ccccc3Br)cc1)C2 (stereo not given in full) | – | – | – | – | EC50 (SAOS-2): 60 µM; EC50 (U2OS): 40 µM
– | CCOC(=O)c1[nH]c2cc(Cl)ccc2c1C(C(=O)NC(C)(C)C)N(C=O)Cc1ccc(OCc2cccc(OC)c2)cc1 (stereo not given) | 6.1% | 84.8% | 8.3% | 0.8% | –
Not Active | O=CN(CCc1ccccc1)C(C(=O)NCCc1ccccc1)c1c(C(=O)O)[nH]c2cc(Cl)ccc12 (stereo not given) | – | – | – | – | –
Not Active | CC(=O)N(Cc1ccc(OCc2ccccc2)cc1)C(C(=O)NC12CC3CC(CC(C3)C1)C2)c1c(C(=O)O)[nH]c2cc(Cl)ccc12 (stereo not given) | – | – | – | – | –
Not Active | O=CN(Cc1ccc(OCc2ccc(F)cc2)cc1)C(C(=O)NC12CC3CC(CC(C3)C1)C2)c1c(C(=O)O)[nH]c2cc(Cl)ccc12 (stereo not given) | – | – | – | – | Ki [5]: Not Active
– | Cc1ccc(COc2ccc(CN(C=O)C(C(=O)NC(C)(C)C)c3c(C(=O)O)[nH]c4cc(Cl)ccc34)cc2)cc1 (stereo not given) | 8.7% | 76.2% | 10.3% | 4.7% | –
– | CCOC(=O)c1[nH]c2cc(Cl)ccc2c1C(C(=O)NC(C)(C)C)N(C=O)Cc1ccc(OCc2ccc(C)cc2)cc1 (stereo not given) | 48.8% | 13% | 37.3% | 0.9% | –
– | CC(C)(C)NC(=O)C(c1c(C(=O)O)[nH]c2cc(Cl)ccc12)N(C=O)Cc1ccc(OCc2ccc(Cl)c(Cl)c2)cc1 (stereo not given) | 7.7% | 81.2% | 10% | 1.1% | –
Not Active | CC(C)(C)NC(=O)C(c1c(C(=O)O)[nH]c2cc(Cl)ccc12)N(C=O)CCc1ccc(OCc2ccc(Br)cc2)cc1 (stereo not given) | – | – | – | – | –
Not Active | CC(C)(C)NC(=O)C(c1c(C(=O)O)[nH]c2cc(Cl)ccc12)N(C=O)Cc1ccc(OCc2ccsc2)cc1 (stereo not given) | – | – | – | – | Ki [5]: Not Active
Not Active | CC(C)(C)NC(=O)C(c1ccc(Cl)cc1)N(C=O)Cc1ccc(OCc2ccc(Cl)c(Cl)c2)cc1 (stereo not given) | – | – | – | – | Ki [5]: Not Active
Not Active | CC(C)(C)NC(=O)C(c1c(C(=O)O)[nH]c2cc(Cl)ccc12)N(C=O)Cc1ccc(OCc2c(Cl)cccc2Cl)cc1 (stereo not given) | – | – | – | – | –
Not Active | CC(C)(C)NC(=O)C(c1c(C(=O)O)[nH]c2cc(Cl)ccc12)N(C=O)Cc1ccc(OCc2ccc([N+](=O)[O-])cc2)cc1 (stereo not given) | – | – | – | – | Ki [5]: Not Active
– | CC(C)(C)NC(=O)C(c1c(C(=O)O)[nH]c2cc(Cl)ccc12)N(C=O)Cc1ccc(OCc2cccc(Cl)c2)cc1 (stereo not given) | 7.9% | 81% | 10.2% | 0.9% | –
Not Active | CC(=O)N(Cc1ccc(OCc2ccc(F)cc2)cc1)C(C(=O)NC1CCCCC1)c1c(C(=O)O)[nH]c2cc(Cl)ccc12 (stereo not given) | – | – | – | – | –
– | CCOC(=O)c1[nH]c2cc(Cl)ccc2c1C(C(=O)NC(C)(C)C)N(C=O)Cc1ccc(OCc2ccccc2I)cc1 (stereo not given) | 6.2% | 86.3% | 6.3% | 1.3% | –
Not Active | CC(C)(C)NC(=O)C(c1c(C(=O)O)[nH]c2cc(Cl)ccc12)N(C=O)Cc1cc(F)c(OCc2ccccc2)c(F)c1 (stereo not given) | – | – | – | – | –
– | CC(C)(C)NC(=O)C(c1c(C(=O)O)[nH]c2cc(Cl)ccc12)N(C=O)Cc1ccc(OCc2cc(F)cc(F)c2)cc1 (stereo not given) | 7.9% | 79.6% | 11.9% | 0.7% | –

Ki (Protein Mdm4) | Compound | Activity (HCT-116 [1]) | Activity (HCT-116 [2]) | Activity (HCT-116 [3]) | Activity (HCT-116 [4]) | further results
– | O=CN(Cc1ccc(OCc2ccccc2Br)cc1)C(C(=O)NC1C2CC3CC(C2)CC1C3)c1c(C(=O)O)[nH]c2cc(Cl)ccc12 (stereo not given) | – | – | – | – | EC50 (SAOS-2): 130 µM; EC50 (U2OS): 40 µM
Not Active | O=CN(Cc1ccc(OCc2ccc(Br)cc2)cc1)C(C(=O)NC12CC3CC(CC(C3)C1)C2)c1c(C(=O)O)[nH]c2cc(Cl)ccc12 (stereo not given) | – | – | – | – | –
Not Active | O=CN(CCc1ccccc1)C(C(=O)NC12CC3CC(CC(C3)C1)C2)c1c(C(=O)O)[nH]c2cc(Cl)ccc12 (stereo not given) | – | – | – | – | –
– | CCOC(=O)c1[nH]c2cc(Cl)ccc2c1C(C(=O)NC(C)(C)C)N(C=O)Cc1ccc(OCc2ccc(Br)cc2)cc1 (stereo not given) | 19.1% | 37.4% | 42.7% | 0.8% | –
Not Active | CC(C)(C)NC(=O)C(c1c(C(=O)O)[nH]c2cc(Cl)ccc12)N(C=O)Cc1ccc(OCc2cccnc2)cc1 (stereo not given) | – | – | – | – | Ki [5]: Not Active
– | CC(C)(C)NC(=O)C(c1c(C(=O)O)[nH]c2cc(Cl)ccc12)N(C=O)Cc1ccc(NCc2ccc(Br)cc2)cc1 (stereo not given) | 18.8% | 65.6% | 9.6% | 6% | –
– | CCOC(=O)c1[nH]c2cc(Cl)ccc2c1C(C(=O)NC(C)(C)C)N(C=O)Cc1ccc(OCc2cccc(Cl)c2)cc1 (stereo not given) | 42.7% | 34.5% | 21.6% | 1.2% | –
Not Active | CCOC(=O)c1[nH]c2cc(Cl)ccc2c1C(C(=O)NC(C)(C)C)N(C=O)Cc1ccc(NCc2ccc(Br)cc2)cc1 (stereo not given) | 23.6% | 58.6% | 15.2% | 2.6% | –
Not Active | Cn1c(C(=O)O)c(C(C(=O)NC(C)(C)C)N(C=O)Cc2ccc(OCc3ccccc3Br)cc2)c2ccc(Cl)cc21 (stereo not given) | – | – | – | – | Ki [5]: Not Active
– | CC(C)(C)NC(=O)C(c1c(C(=O)O)[nH]c2cc(Cl)ccc12)N(C=O)Cc1ccc(OCc2ccccc2Br)cc1 (racemic) | 14.6% | 69.1% | 15.4% | 1% | –
– | CC(C)(C)NC(=O)C(c1c(C(=O)O)[nH]c2cc(Cl)ccc12)N(C=O)Cc1ccc(OCc2ccccc2I)cc1 (stereo not given) | 6.9% | 84.4% | 7.1% | 1.3% | –
Not Active | CC(C)(C)NC(=O)C(c1c(C(=O)O)[nH]c2cc(Cl)ccc12)N(C=O)Cc1ccc(OCCc2ccccc2)cc1 (stereo not given) | 10.7% | 80.7% | 8.1% | 0.5% | –
– | CCOC(=O)c1[nH]c2cc(Cl)ccc2c1C(C(=O)NC(C)(C)C)N(C=O)Cc1ccc(OCc2ccc(Cl)c(Cl)c2)cc1 (stereo not given) | 42.4% | 30% | 27.1% | 0.4% | –
Not Active | CN(Cc1ccc(OCc2ccccc2Br)cc1)C(C(=O)NC(C)(C)C)c1c(C(=O)O)[nH]c2cc(Cl)ccc12 (stereo not given) | – | – | – | – | Ki [5]: Not Active
– | COc1cccc(COc2ccc(CN(C=O)C(C(=O)NC(C)(C)C)c3c(C(=O)O)[nH]c4cc(Cl)ccc34)cc2)c1 (stereo not given) | 8.9% | 76.8% | 13.5% | 0.8% | –
Not Active | CC(C)(C)NC(=O)C(c1c(C(=O)NCCN2CCOCC2)[nH]c2cc(Cl)ccc12)N(C=O)Cc1ccc(OCc2ccccc2Br)cc1 (stereo not given) | – | – | – | – | –
Not Active | CC(C)(C)NC(=O)C(c1c(C(=O)O)[nH]c2cc(Cl)ccc12)N(C=O)CCCN1CCOCC1 (stereo not given) | – | – | – | – | –
– | CCOC(=O)c1[nH]c2cc(Cl)ccc2c1C(C(=O)NC(C)(C)C)N(C=O)Cc1ccc(OCc2ccccc2Br)cc1 (stereo not given) | 57.2% | 9.9% | 32.3% | 0.7% | –
– | COc1ccc(C2=N[C@@H](c3ccc(Cl)cc3)[C@@H](c3ccc(Cl)cc3)N2C(=O)N2CCNC(=O)C2)c(OC(C)C)c1 [NUTLIN-3] | 18.9% | 53% | 26.9% | 1.2% | Ki [5]: Not Active
Not Active | CCOC(=O)c1[nH]c2cc(Cl)ccc2c1C(C(=O)NC(C)(C)C)N(C=O)Cc1ccc(OCc2ccsc2)cc1 (stereo not given) | – | – | – | – | –
Not Active | CC(C)(C)NC(=O)C(NCc1ccc(OCc2ccccc2Br)cc1)c1c(C(=O)O)[nH]c2cc(Cl)ccc12 (stereo not given) | – | – | – | – | –
– | CCOC(=O)c1[nH]c2cc(Cl)ccc2c1C(C(=O)NC(C)(C)C)N(C=O)Cc1ccc(OCc2cc(F)cc(F)c2)cc1 (stereo not given) | 40.2% | 14.1% | 45.2% | 0.5% | –
